From US8772299B2, “Phenyl piperazine compounds, pharmaceutical composition including the same and use thereof” (SK Biopharmaceuticals Co., Ltd., priority 2008, dated 2014) come the findings set out here.

Counter-ions that a name gives are not always drawn.

For orientation: inhibition means the change of the read-out against control, counted positive when it falls. Low values mean little suppression, high ones strong suppression.

The subject of the first experiment is mice. The experiment can be described thus: Tail Suspension Test in Mice (TST). The experiment is classed as in vivo. Particulars: reduction in immobility vs control group, 30 mg/kg, po. The source says: Tail Suspension Test in mice is the well-known animal model to determine antidepressant efficacy of compounds by checking escaping behavior and immobility time of mice. Mice treated with antidepressant drug show escaping behavior continuously comparing with control group.
The mice were mainly treated orally with the test compound dissolved in 30% PEG400 or with only 30% PEG400 as control. Tail of mouse is suspended to the rod of TST equipment and end of tail is fixed with sticky tape. Suspended mouse is incubated during 2 min for training and adaptation and after following 2 min, observe escaping behavior and check immobility time for 4 min. The potent ability of the compounds was determined as percent value of reduction in immobility comparing to control group as 100% baseline.
Take `CN(C)CCC[C@@]1(c2ccc(F)cc2)OCc2cc(C#N)ccc21` [Estalopram, reference compound]: the “% reduction” value is 47, at 30 mg/kg, po %.

In the case of `CNCCC(Oc1ccc(C(F)(F)F)cc1)c1ccccc1` (stereo not drawn) [Fluxetine, reference compound], the “% reduction” value is 49. at 30 mg/kg, po %.

A further experiment has as its target T1, Serotonin 1A (5-HT1A) receptor (Rattus norvegicus, UniProt P19327).
T1 construct: The cortex tissue were homogenized in 30 volumes of ice-cold 50 mM Tris-HCl buffer; from tissue; host or cells: Sprague-Dawley rat brain cortex membranes
T1 sequence (P19327 1-422): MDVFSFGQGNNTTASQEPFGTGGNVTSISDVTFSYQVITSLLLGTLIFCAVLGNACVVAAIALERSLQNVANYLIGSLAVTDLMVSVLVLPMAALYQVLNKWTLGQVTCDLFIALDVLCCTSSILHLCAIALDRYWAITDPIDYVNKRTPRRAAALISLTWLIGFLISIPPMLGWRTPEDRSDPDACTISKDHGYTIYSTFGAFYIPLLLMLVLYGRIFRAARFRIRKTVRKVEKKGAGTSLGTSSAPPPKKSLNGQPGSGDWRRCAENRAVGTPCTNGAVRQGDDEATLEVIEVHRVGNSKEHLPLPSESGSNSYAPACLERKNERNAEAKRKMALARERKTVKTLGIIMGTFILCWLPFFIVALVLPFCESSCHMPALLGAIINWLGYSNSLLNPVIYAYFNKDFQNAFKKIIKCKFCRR
Briefly: Serotonin 1A (5-HT1A) receptor inhibition assay, [3H]8-OH-DPAT binding to rat cortex membranes. Also on record: species or system Sprague-Dawley (SD) rats. As to conditions: 10 nM test compound; 0.92 nM [3H]8-OH-DPAT; rat cortex homogenate; 60 min at 25° C. Here is the method: The method to test the ability of compounds to inhibit serotonin 1A(5-HT1A) receptors was using Hall. et al., J Neuro Chem., 1985, 44, p 1685-1696 with modification.
The Sprague-Dawley (SD) rats were killed by decapitation and their brains rapidly removed at 4° C. The cortex tissue were homogenized in 30 volumes of ice-cold 50 mM Tris-HCl buffer (pH7.4) using an ultra-turrax T8 and centrifuged at 48,000 g for 20 min. The supernatant was discarded and the pellet washed twice by resuspension in 20 volumes Tris-HCl and centrifugation, homogenized in 20 volumes Tris-HCl, and incubated at 37° C. for 10 min. Membranes were than collected by centrifugation and washed twice before final resuspension in 10 volumes of 50 mM Tris-HCl, pH7.4.
For binding assays, the incubation medium consisted of 162.5 ug of tissue homogenate, 0.92 nM of [3H]8-OH-DPAT and vehicle or 10 uM of 5-HT or 10 nM of test compounds per well. 5-HT and test compounds were dissolved in distilled water and incubation medium was 50 mM Tris(pH7.4 at room temperature). The assay plates (96 well) were incubated for 60 min at 25° C. The reaction was terminated by rapid filtration using a Tomtec harvester, through GF/C glassfibre filter with 5 times washes of Tris buffer. The radioactivity retained on the filters was counted by scintillation spectroscopy (MicroBeta TriLux, Wallac). The tests were triplicates. Percent inhibition was calculated as below equation.
Total binding is the value of vehicle treated group and specific binding is the values that deduct non-specific binding (i.e. the value of non-specific ligand, 5-HT).
The compound `COc1ccccc1N1CCN(CCCCOc2cccc(Cn3cncn3)c2)CC1` [Example 6, 1-(2-methoxy-phenyl)-4-[4-(3-[1,2,4]triazol-1-ylmethyl-phenoxy)-butyl]-piperazine hydrochloride] showed an inhibition at 0.01 µM of 50.1%.

Turning to `COc1ccccc1N1CCN(CCCCOc2ccc(CNc3nncs3)cc2)CC1` [Example 43, (4-{4-[4-(2-Methoxy-phenyl)-piperazin-1-yl]-butoxy}-benzyl)-[1,3,4]thiadiazol-2-yl-amine], at 0.01 µM the inhibition was 95.6%.

As to `COc1ccccc1N1CCN(CCCCOc2ccc(CNc3nccs3)cc2)CC1` [Example 22, (4-{4-[4-(2-methoxy-phenyl)-piperazin-1-yl]-butoxy}-benzyl)-thiazol-2-yl-amine], the inhibition at 0.01 µM is 53.4%.

In turn, `COc1ccccc1N1CCN(CCCCOc2ccc(Cn3nnc4ccccc43)cc2)CC1` [Example 14, 1-(4-{4-[4-(2-Methoxy-phenyl)-piperazin-1-yl]-butoxy}-benzyl)-1H-benzotriazole] showed an inhibition at 0.01 µM of 51.1%.

Compound `Clc1ccccc1N1CCN(CCCCOc2ccc(Cn3nccn3)cc2)CC1` [Example 56, 1-(2-chloro-phenyl)-4-[4-(4-[1,2,3]triazol-2-ylmethyl-phenoxy)-butyl]-piperazine] yielded an inhibition at 0.01 µM of 24.3%.

`Clc1ccccc1N1CCN(CCCCOc2ccc(Cn3ccnn3)cc2)CC1` [Example 42, 1-(2-chloro-phenyl)-4-[4-(4-[1,2,3]triazol-1-ylmethyl-phenoxy)-butyl]-piperazine] had an inhibition at 0.01 µM of 36.2%.

Turning to `COc1ccccc1N1CCN(CCCCOc2ccc(Cn3ncnn3)cc2)CC1` [Example 4, 1-(2-methoxy-phenyl)-4-[4-(4-tetrazol-2-ylmethyl-phenoxy)-butyl]-piperazine], the inhibition at 0.01 µM is 75.9%.

Take `COc1ccccc1N1CCN(CCCCOc2ccc(Cn3cnnn3)cc2)CC1` [Example 3, 1-(2-methoxy-phenyl)-4-[4-(4-tetrazol-1-ylmethyl-phenoxy)-butyl]-piperazine]: at 0.01 µM the inhibition was 77.8%.

As to `COc1ccccc1N1CCN(CCCCOc2ccc(CNc3cc(C)no3)cc2)CC1` [Example 46, (4-{4-[4-(2-methoxy-phenyl)-piperazin-1-yl]-butoxy}-benzyl)-(3-methyl-isoxazol-5-yl)-amine], 0.01 µM produced 64.6% inhibition.

For `Clc1ccccc1N1CCN(CCCCOc2ccc(Cn3ncnn3)cc2)CC1` [Example 31, 1-(2-chloro-phenyl)-4-[4-(4-tetrazol-2-ylmethyl-phenoxy)-butyl]-piperazine], testing at 0.01 µM gave an inhibition of 30.3%.

As for `COc1ccccc1N1CCN(CCCCOc2cccc(Cn3ccnn3)c2)CC1` [Example 25, 1-(2-Methoxy-phenyl)-4-[4-(3-[1,2,3]triazol-1-ylmethyl-phenoxy)-butyl]-piperazine], 0.01 µM produced 45.2% inhibition.

Consider `COc1ccccc1N1CCN(CCCCOc2cccc(CN3CCOCC3)c2)CC1` [Example 29, 4-(3-{4-[4-(2-methoxy-phenyl)-piperazin-1-yl]-butoxy}-benzyl)-morpholine], for which testing at 0.01 µM gave an inhibition of 45.8%.

`COc1ccccc1N1CCN(CCCCOc2cccc(Cn3nnnc3C)c2)CC1` [Example 27, 1-(2-methoxy-phenyl)-4-{4-[3-(5-methyl-tetrazol-1-ylmethyl)-phenoxy]-butyl}-piperazine]: the inhibition at 0.01 µM was found to be 40.9%.

The compound `COc1ccccc1N1CCN(CCCCOc2ccc(Cn3cnc(Cl)c3Cl)cc2)CC1` [Example 30, 1-{4-[4-(4,5-dichloro-imidazol-1-ylmethyl)-phenoxy]-butyl}-4-(2-methoxy-phenyl)-piperazine] came in with an inhibition at 0.01 µM of 38.3%.

In turn, `COc1ccccc1N1CCN(CCCCOc2cccc(Cn3nnc(C)n3)c2)CC1` [Example 26, 1-(2-Methoxy-phenyl)-4-{4-[3-(5-methyl-tetrazol-2-ylmethyl)-phenoxy]-butyl}-piperazine] had an inhibition at 0.01 µM of 47%.

`COc1ccccc1N1CCN(CCCCOc2ccc(Cn3nnc(C)n3)cc2)CC1` [Example 17, 1-(2-methoxy-phenyl)-4-{4-[4-(5-methyl-tetrazol-2-ylmethyl)-phenoxy]-butyl}-piperazine]: the inhibition at 0.01 µM came to 56.4%.

The compound `COc1ccccc1N1CCN(CCCCOc2ccc(CNc3cc(C)on3)cc2)CC1` [Example 45, (4-{4-[4-(2-Methoxy-phenyl)-piperazin-1-yl]-butoxy}-benzyl)-(5-methyl-isoxazol-3-yl)-amine] returned an inhibition at 0.01 µM of 73.8%.

Compound `CN1CCN(Cc2ccc(OCCCCN3CCN(c4ccccc4Cl)CC3)cc2)CC1` [Example 35] displayed an inhibition at 0.01 µM of 73.3%.

Compound `COc1ccccc1N1CCN(CCCCOc2ccc(Cn3nnnc3-c3ccccc3)cc2)CC1` [Example 16, 1-(2-methoxy-phenyl)-4-{4-[4-(5-phenyl-tetrazol-1-ylmethyl)-phenoxy]-butyl}-piperazine] yielded an inhibition at 0.01 µM of 62.5%.

In turn, `Cc1nnnn1Cc1ccc(OCCCCN2CCN(c3cccc(Cl)c3Cl)CC2)cc1` [Example 37, 1-(2,3-Dichloro-phenyl)-4-{4-[4-(5-methyl-tetrazol-1-ylmethyl)-phenoxy]-butyl}-piperazine] came in with an inhibition at 0.01 µM of 24.8%.

The compound `Clc1ccccc1N1CCN(CCCCOc2ccc(Cn3cncn3)cc2)CC1` [Example 23, 1-(2-chloro-phenyl)-4-[4-(4-[1,2,4]triazol-1-ylmethyl-phenoxy)-butyl]-piperazine] had an inhibition at 0.01 µM of 17.2%.

As to `COc1ccccc1N1CCN(CCCCOc2ccc(Cn3nnc(-c4ccccc4)n3)cc2)CC1` [Example 15, 1-(2-methoxy-phenyl)-4-{4-[4-(5-phenyl-tetrazol-2-ylmethyl)-phenoxy]-butyl}-piperazine], at 0.01 µM the inhibition was 23.5%.

The compound `COc1ccccc1N1CCN(CCCCOc2ccc(Cn3cnc4ccccc43)cc2)CC1` [Example 9, 1-(4-{4-[4-(2-methoxy-phenyl)-piperazin-1-yl]-butoxy}-benzyl)-1H-benzoimidazole] returned an inhibition at 0.01 µM of 52.2%.

`COc1ccccc1N1CCN(CCCCOc2ccc(CCn3nnnc3C)cc2)CC1` [Example 53, 1-(2-Methoxy-phenyl)-4-(4-{4-[2-(5-methyl-tetrazol-1-yl)-ethyl]-phenoxy}-butyl)-piperazine] came in with an inhibition at 0.01 µM of 46%.

In the case of `COc1ccccc1N1CCN(CCCCOc2ccc(Cn3ncc4ccccc43)cc2)CC1` [Example 13, 1-(4-{4-[4-(2-Methoxy-phenyl)-piperazin-1-yl]-butoxy}-benzyl)-1H-indazole], the inhibition at 0.01 µM came out at 50.4%.

The compound `COc1ccccc1N1CCN(CCCCOc2ccc(Cn3ccnc3C)cc2)CC1` [Example 10, 1-(2-Methoxy-phenyl)-4-{4-[4-(2-methyl-imidazol-1-ylmethyl)-phenoxy]-butyl}-piperazine] gave an inhibition at 0.01 µM of 71.8%.

`Cc1nnn(Cc2ccc(OCCCCN3CCN(c4cccc(Cl)c4Cl)CC3)cc2)n1` [Example 38, 1-(2,3-Dichloro-phenyl)-4-{4-[4-(5-methyl-tetrazol-2-ylmethyl)-phenoxy]-butyl}-piperazine] registered an inhibition at 0.01 µM of 29.4%.

As for `Clc1cccc(N2CCN(CCCCOc3ccc(Cn4ccnn4)cc3)CC2)c1Cl` [Example 44, 1-(2,3-dichloro-phenyl)-4-[4-(4-[1,2,3]triazol-1-ylmethyl-phenoxy)-butyl]-piperazine], 0.01 µM produced 17.4% inhibition.
